Data published in the supplement of paper PMC10307832.

Tests used:
Assay in all cases: relative viability (nuclei count vs DMSO), 5 days (fraction); higher = more cells survive
[1] = compound: O=C(O)c1ccc2c(c1)nc(Nc1cccc(Cl)c1)c1ccncc12 [Silmitasertib] + CC(=O)Nc1cccc(-n2c(=O)n(C3CC3)c(=O)c3c(Nc4ccc(I)cc4F)n(C)c(=O)c(C)c32)c1 [Trametinib] (partner 0.02 µM)
Method in brief: (§1)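 Lung cancer cell lines were pin-tool dosed in 1536-well plates on the day after seeding, with either a lone drug or a fixed anchor-drug dose plus five library-drug doses (not always all listed) in √10 steps. Nuclei were counted on 4× images after 5 days. Relative viability is the ratio of treated-well to vehicle-well nuclei counts, with each value a median of duplicate plates.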

[2] = compound: O=C(O)c1ccc2c(c1)nc(Nc1cccc(Cl)c1)c1ccncc12 [Silmitasertib] + CS(=O)(=O)N1CCN(Cc2cc3nc(-c4cccc5[nH]ncc45)nc(N4CCOCC4)c3s2)CC1 [Pictilisib] (partner 1 µM)
Method in brief: as §1

[3] = compound: O=C(O)c1ccc2c(c1)nc(Nc1cccc(Cl)c1)c1ccncc12 [Silmitasertib] + C[C@@H](Oc1cc(-c2cnn(C3CCNCC3)c2)cnc1N)c1c(Cl)ccc(F)c1Cl [Crizotinib] (partner 1 µM)
Method in brief: as §1

Silmitasertib + AZD7762 = compound: O=C(O)c1ccc2c(c1)nc(Nc1cccc(Cl)c1)c1ccncc12 [Silmitasertib] + NC(=O)Nc1cc(-c2cccc(F)c2)sc1C(=O)N[C@H]1CCCNC1 [AZD7762] (partner 0.2 µM)
Method in brief: as §1

Silmitasertib + Olaparib = compound: O=C(O)c1ccc2c(c1)nc(Nc1cccc(Cl)c1)c1ccncc12 [Silmitasertib] + O=C(c1cc(Cc2n[nH]c(=O)c3ccccc23)ccc1F)N1CCN(C(=O)C2CC2)CC1 [Olaparib] (partner 8 µM)
Method in brief: as §1

| Cell Line | relative viability ([1]; first compound 0.04 µM) | relative viability ([1]; first compound 0.4 µM) | relative viability ([1]; first compound 1.265 µM) | relative viability ([1]; first compound 4 µM) | relative viability ([2]; first compound 0.04 µM) | relative viability ([2]; first compound 0.4 µM) | relative viability ([2]; first compound 1.265 µM) | relative viability ([2]; first compound 4 µM) | relative viability ([3]; first compound 0.04 µM) | relative viability ([3]; first compound 0.4 µM) | relative viability ([3]; first compound 1.265 µM) | relative viability ([3]; first compound 4 µM) | relative viability (Silmitasertib + AZD7762; first compound 0.04 µM) | relative viability (Silmitasertib + AZD7762; first compound 0.4 µM) | relative viability (Silmitasertib + AZD7762; first compound 1.265 µM) | relative viability (Silmitasertib + AZD7762; first compound 4 µM) | relative viability (Silmitasertib + Olaparib; first compound 0.04 µM) | relative viability (Silmitasertib + Olaparib; first compound 0.4 µM) | relative viability (Silmitasertib + Olaparib; first compound 1.265 µM) | relative viability (Silmitasertib + Olaparib; first compound 4 µM) |
| --- | --- | --- | --- | --- | --- | --- | --- | --- | --- | --- | --- | --- | --- | --- | --- | --- | --- | --- | --- | --- |
| NCI-H727 | 0.415 | 0.338 | 0.328 | 0.348 | 0.608 | 0.392 | 0.381 | 0.32 | 0.868 | 0.65 | 0.753 | 0.485 | 0.773 | 0.573 | 0.654 | 0.543 | 0.709 | 0.59 | 0.584 | 0.681 |
| NCI-H1355 | 0.454 |  | 0.393 | 0.367 | 0.419 |  | 0.367 | 0.293 | 1.07 |  | 1.1 | 1.07 | 0.729 |  | 0.776 | 0.679 | 0.727 |  | 0.698 | 0.615 |
| NCI-H1944 | 0.419 | 0.403 | 0.481 | 0.429 | 0.361 | 0.442 | 0.364 | 0.381 | 1.1 | 0.856 | 0.965 | 1.03 | 0.591 | 0.399 | 0.547 | 0.528 | 0.404 | 0.33 | 0.495 | 0.587 |
| NCI-H2087 | 0.26 | 0.186 | 0.135 | 0.134 | 0.997 | 0.513 | 0.577 | 0.347 | 0.88 | 0.793 | 0.853 | 0.428 | 1.34 | 1.1 | 1.35 | 0.817 | 0.614 | 0.217 | 0.465 | 0.38 |
| NCI-H838 | 0.673 | 0.489 | 0.463 | 0.309 | 0.463 |  | 0.434 | 0.359 | 0.941 |  | 0.861 | 0.511 | 0.828 | 0.864 | 1.03 | 0.951 | 0.849 | 0.521 | 0.635 | 0.491 |
| LC-2-ad | 0.987 | 0.813 | 0.892 | 0.772 | 0.448 | 0.443 | 0.525 | 0.332 | 0.421 | 0.423 | 0.37 | 0.417 | 0.95 | 0.811 | 0.797 | 0.494 | 0.712 | 0.522 | 0.754 | 0.663 |
| HCC-78 | 0.794 | 0.615 | 0.537 | 0.656 | 0.23 | 0.231 | 0.226 | 0.205 | 0.379 | 0.31 | 0.298 | 0.323 | 0.783 | 0.469 | 0.405 | 0.475 | 0.92 | 0.42 | 0.509 | 0.734 |
| LOU-NH91 | 0.786 | 0.771 | 0.722 | 0.731 | 0.574 | 0.507 | 0.464 | 0.388 | 0.755 | 0.585 | 0.676 | 0.683 | 0.785 | 0.745 | 0.621 | 0.594 | 0.941 | 0.839 | 0.8 | 0.814 |
| NCI-H1734 | 0.737 | 0.664 | 0.63 | 0.581 | 0.514 |  | 0.424 | 0.313 | 0.628 |  | 0.606 | 0.655 | 0.555 | 0.445 | 0.544 | 0.513 | 0.607 | 0.373 | 0.583 | 0.549 |
| NCI-H596 | 0.765 | 0.684 | 0.764 | 0.796 | 0.393 | 0.384 | 0.36 | 0.336 | 1.01 | 1.01 | 0.909 | 0.964 | 1.04 | 1.08 | 0.953 | 0.957 | 0.659 | 0.597 | 0.685 | 0.654 |
| NCI-H1755 | 0.74 | 0.779 | 0.826 | 0.864 | 0.431 | 0.441 | 0.441 | 0.375 | 0.89 | 0.837 | 0.929 | 0.924 | 0.407 | 0.479 | 0.528 | 0.494 | 0.892 | 0.783 | 0.858 | 1.01 |
| NCI-H647 | 0.524 | 0.57 | 0.399 | 0.431 | 0.546 | 0.462 | 0.33 | 0.153 | 1.26 | 1.1 | 0.932 | 0.48 | 0.513 | 0.364 | 0.404 | 0.19 | 0.625 | 0.431 | 0.57 | 0.325 |
| HCC-15 | 0.407 | 0.343 | 0.275 | 0.286 | 0.772 | 0.535 | 0.493 | 0.238 | 0.804 | 0.603 | 0.71 | 0.575 | 1.19 | 0.884 | 1.15 | 0.875 | 0.777 | 0.508 | 0.595 | 0.39 |
| NCI-H2126 | 0.578 | 0.521 | 0.467 | 0.501 | 0.512 | 0.508 | 0.45 | 0.454 | 1.02 | 0.996 | 0.99 | 1.12 | 1.05 | 0.836 | 1.09 | 0.934 | 0.914 | 0.73 | 0.821 | 0.818 |
| NCI-H2085 | 0.641 | 0.454 | 0.423 | 0.386 | 0.474 | 0.547 | 0.453 | 0.457 | 0.871 | 0.777 | 0.806 | 0.77 | 0.974 | 0.702 | 0.86 | 0.858 | 0.805 | 0.529 | 0.731 | 0.684 |
| BEN | 1.14 | 0.856 | 1.02 | 0.968 | 0.628 | 0.524 | 0.493 | 0.476 | 0.974 | 0.827 | 0.739 | 0.846 | 0.935 | 0.674 | 0.625 | 0.568 | 1.31 | 0.506 | 0.964 | 1.15 |
